TGI data for 18 compounds are collected here from PubChem BioAssay (NCI).

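Protocol summary: plate cells (96-well), add compound at 5 concentrations, incubate 48 h, interpolate endpoints linearly. The concentration for full growth arrest is given as TGI.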 Where a SMILES comes first, the peptide text is derived from it. [ ]: non-standard residue; d: D form. The star is where a group is joined. AllylGly = C=CC[CH](N)C(=O)O; Boc = CC(C)(C)OC(=O)*; OtBu = CC(C)(C)O*

Test systems include SF-268 CNS; NCI-H460 lung; HL-60(TB) leukemia; HOP-92 NSCLC; NCI/ADR-RES ovarian; MALME-3M melanoma; HCC-2998 colon; T-47D breast; CCRF-CEM leukemia; SF-295 CNS.
Common to all, as to test: NCI anticancer screen, dose series, 48 h

Turning to `C=CCC(NC(=O)C(CC(=O)OC(C)(C)C)NC(=O)OC(C)(C)C)C(=O)OC` (stereo not given) (Boc-Asp(OtBu)-[AllylGly]-OMe; configuration not given here), the TGI with SF-268 CNS was greater than 100 µM; in the assay on NCI-H460 lung it was greater than 100 µM; with HL-60(TB) leukemia it was 85.5 µM; in the assay with HOP-92 NSCLC, greater than 100 µM; in the assay on NCI/ADR-RES ovarian, greater than 100 µM; in the assay on MALME-3M melanoma, 3.04 µM. Besides, the TGI with HCC-2998 colon was 61.3 µM; with T-47D breast, greater than 100 µM; with CCRF-CEM leukemia it was greater than 100 µM; in the assay with SF-295 CNS, greater than 100 µM.

Turning to `CC(C)NC(=O)CN1CCN(C2=CC(=O)c3c(O)ccc(O)c3C2=O)CC1`, the TGI with SF-268 CNS was 53.1 µM; with NCI-H460 lung, 29.1 µM; with HL-60(TB) leukemia, 5.99 µM; in the assay with HOP-92 NSCLC, 38.3 µM; in the assay with NCI/ADR-RES ovarian, 25.5 µM; with MALME-3M melanoma, 4.41 µM. The TGI was 30.4 µM in the assay with HCC-2998 colon, 24.7 µM in the assay on T-47D breast, greater than 95.2 µM in the assay with CCRF-CEM leukemia and 32.6 µM in the assay with SF-295 CNS.

Consider `CC(C)(C)c1nc2c(o1)C(=O)c1ccccc1C2=O`, for which the TGI stood at 10.5 µM in the assay on SF-268 CNS; 8.19 µM in the assay on NCI-H460 lung; 1.78 µM with HL-60(TB) leukemia; 6.44 µM with HOP-92 NSCLC; 1.76 µM in the assay on NCI/ADR-RES ovarian; 1.48 µM with MALME-3M melanoma. The TGI in the assay on HCC-2998 colon was 7.39 µM; with T-47D breast, 3.97 µM; in the assay on CCRF-CEM leukemia, greater than 29.5 µM; with SF-295 CNS, 4.25 µM.

As for `O=C(CC(=O)N1N=C(N2CCCCC2)CC1c1ccccc1)Nc1ccc(Cl)cc1` (stereo not given), the TGI with SF-268 CNS, in the assay with NCI-H460 lung, in the assay on HL-60(TB) leukemia, in the assay with HOP-92 NSCLC, in the assay with NCI/ADR-RES ovarian and in the assay on MALME-3M melanoma was greater than 100 µM each time. The TGI in the assay on HCC-2998 colon, in the assay on T-47D breast, in the assay with CCRF-CEM leukemia and in the assay with SF-295 CNS was greater than 100 µM each time.

Consider `C[C@]12CC[C@@H]3c4cc(OCC(F)(F)F)c(O)cc4C(=O)C[C@H]3[C@@H]1CC[C@@H]2O`, for which the TGI in the assay on SF-268 CNS is greater than 100 µM; in the assay on NCI-H460 lung it was greater than 100 µM; with HL-60(TB) leukemia it was 4.68 µM; in the assay with HOP-92 NSCLC it was greater than 100 µM; in the assay on NCI/ADR-RES ovarian it was greater than 31.3 µM; with MALME-3M melanoma, 88.1 µM. The TGI in the assay with HCC-2998 colon is 38.7 µM; in the assay with T-47D breast it was greater than 100 µM; in the assay with CCRF-CEM leukemia it was greater than 66.3 µM; in the assay on SF-295 CNS it was 15.4 µM.

Consider `O=C1Nc2cccc(Cl)c2/C1=C\c1c(Cl)nc2sccn12`, for which the TGI was 52.5 µM in the assay with SF-268 CNS; greater than 100 µM with NCI-H460 lung; greater than 100 µM with HL-60(TB) leukemia; 46.2 µM in the assay on HOP-92 NSCLC; greater than 100 µM in the assay on NCI/ADR-RES ovarian; greater than 100 µM in the assay with MALME-3M melanoma. Besides, the TGI in the assay with HCC-2998 colon, in the assay with T-47D breast, with CCRF-CEM leukemia and in the assay on SF-295 CNS was greater than 100 µM throughout.

Take `O=C(NNC(=S)Nc1ccccc1)c1ccccc1Nc1ccccc1C(=O)NNC(=S)Nc1ccccc1`: the TGI with SF-268 CNS is 60.6 µM; in the assay with NCI-H460 lung it was 49 µM; in the assay with HL-60(TB) leukemia, greater than 100 µM; with HOP-92 NSCLC, 30.5 µM; with NCI/ADR-RES ovarian, greater than 100 µM; in the assay on MALME-3M melanoma it was 52.3 µM. Moreover, the TGI is 37.1 µM with HCC-2998 colon, greater than 100 µM in the assay on T-47D breast, greater than 100 µM in the assay on CCRF-CEM leukemia and 57.6 µM in the assay with SF-295 CNS.

For `O=P(Oc1ccccc1)(Oc1ccccc1)Oc1c[nH]c2ccccc12`, the TGI in the assay on SF-268 CNS was 24.3 µM; in the assay with NCI-H460 lung, 26.7 µM; in the assay with HL-60(TB) leukemia, 44.1 µM; with HOP-92 NSCLC, 7.15 µM; in the assay with NCI/ADR-RES ovarian, 18 µM; with MALME-3M melanoma, 37.5 µM. The TGI in the assay with HCC-2998 colon was found to be 17.9 µM; in the assay on T-47D breast, 52.9 µM; in the assay on CCRF-CEM leukemia, 1.5 µM; with SF-295 CNS, 13.1 µM.

Regarding `CC(=O)C(=[N+]=[N-])C(=O)OC(C)(C)C#N`, the TGI in the assay with SF-268 CNS, in the assay with NCI-H460 lung, with HL-60(TB) leukemia, in the assay with HOP-92 NSCLC, with NCI/ADR-RES ovarian and with MALME-3M melanoma was greater than 10 µM each time. Further, the TGI in the assay with HCC-2998 colon, in the assay with T-47D breast, in the assay with CCRF-CEM leukemia and with SF-295 CNS was greater than 10 µM in each case.

With `COC(=O)C1(Cc2ccc3c(c2)CCC3)Cc2ccc3c(c2C1O)CCC3` (stereo not given), the TGI is 69.8 µM with SF-268 CNS; 54.4 µM with NCI-H460 lung; greater than 100 µM in the assay on HL-60(TB) leukemia; 21.9 µM in the assay on HOP-92 NSCLC; 35.9 µM in the assay with NCI/ADR-RES ovarian; 27.3 µM in the assay on MALME-3M melanoma. Also, the TGI is 30.9 µM in the assay with HCC-2998 colon, 33 µM in the assay with T-47D breast, greater than 100 µM in the assay on CCRF-CEM leukemia and 42.4 µM with SF-295 CNS.

Take `Clc1ccc(Oc2ccc(N=Cc3ccc(Cl)cc3Cl)cc2Cl)cc1`: the TGI is greater than 100 µM with SF-268 CNS; greater than 100 µM in the assay with NCI-H460 lung; 57.6 µM in the assay with HL-60(TB) leukemia; greater than 100 µM in the assay on HOP-92 NSCLC; 84.9 µM in the assay on NCI/ADR-RES ovarian; 87.4 µM in the assay with MALME-3M melanoma. In addition, the TGI in the assay on HCC-2998 colon was greater than 100 µM; with T-47D breast, greater than 100 µM; with CCRF-CEM leukemia it was 44.8 µM; in the assay on SF-295 CNS it was greater than 100 µM.

With `CN(C)CCNc1ccc2c(=O)n(CCN(C)C)c(=O)n3c4ccc([N+](=O)[O-])cc4c(=O)c1c23`, the TGI stood at 3.33 µM with SF-268 CNS; 1.53 µM in the assay with NCI-H460 lung; 0.417 µM in the assay with HL-60(TB) leukemia; 3.33 µM with HOP-92 NSCLC; 2.1 µM in the assay on NCI/ADR-RES ovarian; 1.37 µM in the assay on MALME-3M melanoma. Also, the TGI with HCC-2998 colon is 2.27 µM; in the assay with T-47D breast it was 6.89 µM; with CCRF-CEM leukemia it was 0.381 µM; in the assay with SF-295 CNS, 2.31 µM.

On to `CC(C)(C)N(Cc1ccc2c(c1)OCO2)C(=O)/C=C\S(=O)c1ccccc1` (stereo not given), for which the TGI in the assay on SF-268 CNS was 5.78 µM; in the assay on NCI-H460 lung it was 16.9 µM; with HL-60(TB) leukemia, 7.6 µM; in the assay with HOP-92 NSCLC, 8.18 µM; in the assay with NCI/ADR-RES ovarian, 10.2 µM; in the assay on MALME-3M melanoma, 13.9 µM. Also, the TGI with HCC-2998 colon was 13.8 µM; in the assay on T-47D breast it was 14.3 µM; with CCRF-CEM leukemia, greater than 100 µM; in the assay on SF-295 CNS it was 22.9 µM.

Regarding `CC1=C2C(=O)[C@H]3[C@@H](CC=C4C[C@@H](O)CC[C@@]43C)[C@@H]2CC[C@]12O[C@@H]1C[C@H](C)CN[C@H]1[C@H]2C`, the TGI was greater than 66.7 µM in the assay on SF-268 CNS; greater than 65 µM in the assay on NCI-H460 lung; greater than 65.5 µM with HL-60(TB) leukemia; 26.6 µM with HOP-92 NSCLC; greater than 100 µM in the assay on NCI/ADR-RES ovarian; greater than 79.3 µM with MALME-3M melanoma. For the same compound, the TGI in the assay with HCC-2998 colon was greater than 82.8 µM; with T-47D breast it was greater than 100 µM; in the assay on CCRF-CEM leukemia, greater than 100 µM; in the assay on SF-295 CNS, greater than 58.7 µM.

For `CC(C)(C)c1ccc(-c2nc3ccc([N+](=O)[O-])cc3c(=O)o2)cc1`, the TGI in the assay with SF-268 CNS is greater than 100 µM; with NCI-H460 lung it was greater than 100 µM; in the assay on HL-60(TB) leukemia, 65.6 µM; with HOP-92 NSCLC, 55.2 µM; in the assay with NCI/ADR-RES ovarian it was 79.8 µM; in the assay on MALME-3M melanoma, 75 µM. Moreover, the TGI with HCC-2998 colon is 33 µM; with T-47D breast it was greater than 100 µM; with CCRF-CEM leukemia, 58.2 µM; in the assay with SF-295 CNS, 76.4 µM.

On to `O=c1cc(N2CCOCC2)[nH]c(=O)n1-c1cccc(C(F)(F)F)c1`, for which the TGI with SF-268 CNS, in the assay with NCI-H460 lung, with HL-60(TB) leukemia, with HOP-92 NSCLC, with NCI/ADR-RES ovarian and with MALME-3M melanoma was greater than 100 µM in each case. Moreover, the TGI in the assay with HCC-2998 colon, with T-47D breast, in the assay on CCRF-CEM leukemia and with SF-295 CNS was greater than 100 µM each time.

For the compound `Cc1ccc(S(=O)(=O)NN=C2CCCCCCCCCCC2)cc1`, the TGI in the assay with SF-268 CNS, with NCI-H460 lung, in the assay with HL-60(TB) leukemia, in the assay with HOP-92 NSCLC, in the assay on NCI/ADR-RES ovarian and with MALME-3M melanoma was greater than 100 µM each time. Further, the TGI in the assay on HCC-2998 colon, in the assay with T-47D breast, in the assay with CCRF-CEM leukemia and in the assay with SF-295 CNS was greater than 100 µM in each case.

Take `COc1ccc(-c2csc(=Nc3ccccc3)n2CC(O)c2ccc([N+](=O)[O-])cc2)cc1` (stereo not given): the TGI with SF-268 CNS, in the assay with NCI-H460 lung, in the assay on HL-60(TB) leukemia, with HOP-92 NSCLC, in the assay on NCI/ADR-RES ovarian and in the assay with MALME-3M melanoma was greater than 100 µM each time. Further, the TGI in the assay with HCC-2998 colon, in the assay with T-47D breast, in the assay on CCRF-CEM leukemia and with SF-295 CNS was greater than 100 µM throughout.
